# According to patent publication US20040232089A1, “Biocidal compounds for treating water” (VANETTA S.p.A., priority 2003, published 2004):
# Assays:
# [1] = Hydrolysis test carried out in the dark; type: physicochemical
# Description: From the hydrolysis test carried out in the dark, MNB and MPB appear to be readily degradable at a pH compatible with environmental conditions.
# [2] = Photo-degradability under daylight and UV; type: physicochemical; conditions: 10 ppm in drinking water (pH 6,5-7,5)
# Protocol: Similarly, the same behaviour is confirmed when evaluating the photo-degradability under daylight and UV (the irradiation test is carried out on a solution of 10 ppm in drinking water (pH 6,5-7,5)).
# [3] = Description: As reminded often, the water solubility is an essential feature for the candidate biocide to be used successfully in the biological control of water.
# [4] = Biodegradability OECD 301 A (92/69/EEC C4-A); conditions: 7 days after the beginning of the test
# Protocol: In fact, based on data available with respect to the most similar compounds to the menadione derivatives disclosed herein, one would expect a degradability in the range of 0% (percentage calculated based on the initial mass expressed in mg/l) typical of menadione (2-methyl-1,4-naphthalenedione) and 17% (assessed after 28 days) typical of menadione sodium bisulphite (which calculation was performed in accordance with the guidelines OECD301 A attached to directive EEC 92/69/EEC C4-A).
# Finally biodegradability was also evaluated according to standard 92/69/EEC C4-A. From the data, both MNB and MPB result to have a remarkably better biodegradability than 2-methyl-1,4-naphthalenedione and particularly than MSB.
Compound,"½ LIFE (hydrolysis) ([1]; pH 6, 8, in the dark) [h]","½ LIFE (hydrolysis) ([1]; pH 9, in the dark) [h]",Light exp. Tot Degr. [2] [h],Sol. in H2O [3],Light exp. ½ life [2] [h],degradability relative to that of MSB [4]
"O=C1C=CC(=O)c2c(O)cccc21 [Juglone, 5-hydroxy-1,4-naphthalenedione, reference compound]",>288,15,48,,,
"CC1(S(=O)(=O)O)CC(=O)c2ccccc2C1=O.Cc1cc(C)[nH]c(=O)n1 (centres unmarked) [MPB, menadione dimethylpyrimidinole bisulphite]",48,<3,48,10 gr/l,10,eight
"CC1=CC(=O)c2ccccc2C1=O [Menadione, 2-methyl-1,4-naphthalenedione, reference compound]",1500,550,>5000,ins.,1500,
